The test concerns the target kinase domain of IRE1 alpha (His-tagged kinase dead construct KR, AA G547-L977, D688N) (Homo sapiens (Human), UniProt O75460, D688N). Briefly: IRE1α TR-FRET competition binding assay. The conditions noted are these: competition with Kinase Tracer 236, 0.1 μM; one hour at room temperature. As for the experimental part:
To determine the affinity of compound binding to the kinase domain of IRE1 alpha, a Time Resolved Fluorescence Resonance Energy Transfer (TR-FRET) competition assay was used. A His-tagged IRE1 alpha kinase dead construct containing the kinase and RNase domains (KR, AA G547-L977, D688N) was expressed in Sf9 insect cells. The purified protein (final concentration 0.006 μM micromolar) was pre-incubated with anti-His Europium labeled antibody (Life Technologies PV5596, final concentration 0.002 μM micromolar) for one hour at 4° C. in 1X TR-FRET Assay Buffer (50 mM HEPES, pH 7.5.10 mM MgCl2, 0.083 mM Brij 35, 1 mM DTT, and 0.1% bovine gamma globulin) prior to addition to test compounds. A fluorescent labeled probe based on an ATP competitive inhibitor (Kinase Tracer 236, Life Technologies PV5592) is added to a final concentration of 0.1 μM (micromolar). Reactions were carried out for one hour at room temperature in a final volume of 20 μL (microliter) in 384 well white ProxiPlates (Perkin Elmer 6008289). Binding of the tracer to the IRE1 protein alpha was detected in an Envision instrument (PerkinElmer) equipped with a TRF laser option and a LANCE/Delfia Dual/Bias D400/D630 mirror (Ex 347 nm, 1st Em 665 nm, 2nd Em 615 nm).
Exemplary compounds in Table A1 were tested in the IRE1α binding assays.

The record followed here is US12071425B2 (Genentech, Inc., priority 2018, dated 2024).

Where a name gives a salt, the structure may show the parent alone.

Sequence of kinase domain of IRE1 alpha (His-tagged kinase dead construct KR, AA G547-L977, D688N) (O75460 547-977 D688N): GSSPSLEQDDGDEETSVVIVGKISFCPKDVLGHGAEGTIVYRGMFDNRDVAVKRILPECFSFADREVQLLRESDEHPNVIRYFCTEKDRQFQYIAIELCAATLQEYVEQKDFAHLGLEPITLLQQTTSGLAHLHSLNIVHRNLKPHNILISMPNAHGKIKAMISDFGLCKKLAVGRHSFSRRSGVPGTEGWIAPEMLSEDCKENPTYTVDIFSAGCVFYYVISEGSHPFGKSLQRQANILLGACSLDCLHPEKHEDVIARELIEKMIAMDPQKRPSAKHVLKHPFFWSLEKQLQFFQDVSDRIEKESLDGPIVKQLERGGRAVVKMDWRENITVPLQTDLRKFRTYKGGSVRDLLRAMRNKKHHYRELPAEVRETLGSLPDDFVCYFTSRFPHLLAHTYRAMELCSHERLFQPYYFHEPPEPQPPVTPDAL

As to `CC(F)(F)C1CNCC(Nc2nccc(-c3cccnc3Oc3cc(F)c(NS(=O)(=O)Cc4ccccc4)c(F)c3F)n2)C1` (racemic) [Compound 337, N-(4-((3-(2-((5-(1,1-Difluoroethyl)piperidin-3-yl)amino)pyrimidin-4-yl)pyridin-2-yl)oxy)-2,3,6-trifluorophenyl)-1-phenylmethanesulfonamide hydrochloride], the 50% inhibitory concentration (IC50) amounted to 8.9 nM.
Molecule `O=C(Nc1ccc(Oc2ncccc2-c2ccnc(N[C@H]3CCCNC3)n2)c(F)c1F)C1CC12CC2` (single isomer, unassigned) [Compound 150, hydrochloride] gave a concentration for half-maximal inhibition (IC50) of 300 nM. Against the preceding molecule, the IC50 is about 34-fold higher.
Next, `O=S(=O)(Cc1ccccc1)Nc1ccc(Oc2ncccc2-c2ccnc(NC34CNCC3C4)n2)c(F)c1F` (single isomer, unassigned) [Compound 185, N-(4-((3-(2-(3-Azabicyclo[3.1.0]hexan-5-ylamino)pyrimidin-4-yl)-2-pyridyl)oxy)-2,3-difluoro-phenyl)-1-phenyl-methanesulfonamide]: 9.4 nM; `O=S(=O)(Cc1ccccc1)Nc1ccc(Oc2ncccc2-c2ccnc(NC34CNCC3C4)n2)c(F)c1F` (single isomer, unassigned) [Compound 186, N-(4-((3-(2-(3-Azabicyclo[3.1.0]hexan-5-ylamino)pyrimidin-4-yl)-2-pyridyl)oxy)-2,3-difluoro-phenyl)-1-phenyl-methanesulfonamide]: 20 nM.
For the molecule `O=S(=O)(Cc1ccccc1)Nc1c(F)cc(Oc2ncccc2-c2ccnc(CC3CCCNC3)n2)c(F)c1F` (single isomer, unassigned) [Compound 198, 1-Phenyl-N-(2,3,6-trifluoro-4-((3-(2-(3-piperidylmethyl)pyrimidin-4-yl)-2-pyridyl)oxy)phenyl)methanesulfonamide], the 50% inhibitory concentration (IC50) came out at 1300 nM.
Next, `O=S(=O)(Cc1ccccc1)Nc1c(F)cc(Oc2ncccc2-c2ccnc(CC3CCCNC3)n2)c(F)c1F` (single isomer, unassigned) [Compound 199, 1-Phenyl-N-(2,3,6-trifluoro-4-((3-(2-(3-piperidylmethyl)pyrimidin-4-yl)-2-pyridyl)oxy)phenyl)methanesulfonamide]: 110 nM; `OC(CNc1cccc(Oc2ncccc2-c2ccnc(N[C@H]3CCCNC3)n2)c1F)C(F)(F)F` (single isomer, unassigned) [Compound 200]: 530 nM; `OC(CNc1cccc(Oc2ncccc2-c2ccnc(N[C@H]3CCCNC3)n2)c1F)C(F)(F)F` (single isomer, unassigned) [Compound 201]: 210 nM.
In the case of `CCC1CCN(c2ccc(Oc3ncccc3-c3ccnc(N[C@H]4CCCNC4)n3)c(F)c2F)C1=O` (single isomer, unassigned) [Compound 248], the IC50 came to 45 nM.
Under `CCC1CCN(c2ccc(Oc3ncccc3-c3ccnc(N[C@H]4CCCNC4)n3)c(F)c2F)C1=O` (single isomer, unassigned) [Compound 249] stands 160 nM; under `O=S(=O)(CC1CCC1(F)F)Nc1c(F)cc(Oc2ncccc2-c2ccnc(N[C@@H]3CNC[C@@H](F)C3)n2)c(F)c1F` (single isomer, unassigned) [Compound 264], 1.6 nM; under `O=S(=O)(CC1CCC1(F)F)Nc1c(F)cc(Oc2ncccc2-c2ccnc(N[C@@H]3CNC[C@@H](F)C3)n2)c(F)c1F` (single isomer, unassigned) [Compound 265], 1.4 nM.
Next, `O=S(=O)(Cc1ccccc1)Nc1c(F)cc(Oc2ncccc2-c2ccnc(NC3CNCC(CF)C3)n2)c(F)c1F` (single isomer, unassigned) [Compound 277, 1-Phenyl-N-(2,3,6-trifluoro-4-((3-(2-((5-(fluoromethyl)piperidin-3-yl)amino)pyrimidin-4-yl)pyridin-2-yl)oxy)phenyl)methanesulfonamide]: 27 nM; `O=S(=O)(Cc1ccccc1)Nc1c(F)cc(Oc2ncccc2-c2ccnc(NC3CNCC(CF)C3)n2)c(F)c1F` (single isomer, unassigned) [Compound 278, 1-Phenyl-N-(2,3,6-trifluoro-4-((3-(2-((5-(fluoromethyl)piperidin-3-yl)amino)pyrimidin-4-yl)pyridin-2-yl)oxy)phenyl)methanesulfonamide]: 0.78 nM.
In the case of `O=S(=O)(Cc1ccccc1)Nc1c(F)cc(Oc2ncccc2-c2ccnc(NC3CC4CCCN(C4)C3)n2)c(F)c1F` (single isomer, unassigned) [Compound 287, N-(4-((3-(2-((1-azabicyclo[3.3.1]nonan-3-yl)amino)pyrimidin-4-yl)pyridin-2-yl)oxy)-2,3,6-trifluorophenyl)-1-phenylmethanesulfonamide hydrochloride], the 50% inhibitory concentration (IC50) amounted to 1.5 nM. This IC50 lies about 1.9-fold higher than the previous one.
Next, `O=S(=O)(Cc1ccccc1)Nc1c(F)cc(Oc2ncccc2-c2ccnc(NC3CC4CCCN(C4)C3)n2)c(F)c1F` (single isomer, unassigned) [Compound 288, N-(4-((3-(2-((1-azabicyclo[3.3.1]nonan-3-yl)amino)pyrimidin-4-yl)pyridin-2-yl)oxy)-2,3,6-trifluorophenyl)-1-phenylmethanesulfonamide]: 1.1 nM; `CC1(CF)CNCC(Nc2nccc(-c3cccnc3Oc3cc(F)c(NS(=O)(=O)Cc4ccccc4)c(F)c3F)n2)C1` (single isomer, unassigned) [Compound 294, 1-Phenyl-N-(2,3,6-trifluoro-4-((3-(2-((5-(fluoromethyl)-5-methylpiperidin-3-yl)amino)pyrimidin-4-yl)pyridin-2-yl)oxy)phenyl)methanesulfonamide]: 0.59 nM; `CC1(CF)CNCC(Nc2nccc(-c3cccnc3Oc3cc(F)c(NS(=O)(=O)Cc4ccccc4)c(F)c3F)n2)C1` (single isomer, unassigned) [Compound 295, 1-Phenyl-N-(2,3,6-trifluoro-4-((3-(2-((5-(fluoromethyl)-5-methylpiperidin-3-yl)amino)pyrimidin-4-yl)pyridin-2-yl)oxy)phenyl)methanesulfonamide]: 41 nM.
Next, `O=S(=O)(Cc1ccccc1)Nc1c(F)cc(Oc2ncccc2-c2ccnc(NC3CNCC4(C3)CC4(F)F)n2)c(F)c1F` (single isomer, unassigned) [Compound 298, N-(4-((3-(2-((1,1-Difluoro-5-azaspiro[2.5]octan-7-yl)amino)pyrimidin-4-yl)pyridin-2-yl)oxy)-2,3,6-trifluorophenyl)-1-phenylmethanesulfonamide]: 1.8 nM.
Under `O=S(=O)(Cc1ccccc1)Nc1c(F)cc(Oc2ncccc2-c2ccnc(NC3CNCC4(C3)CC4(F)F)n2)c(F)c1F` (single isomer, unassigned) [Compound 299, N-(4-((3-(2-((1,1-Difluoro-5-azaspiro[2.5]octan-7-yl)amino)pyrimidin-4-yl)pyridin-2-yl)oxy)-2,3,6-trifluorophenyl)-1-phenylmethanesulfonamide] stands 0.38 nM; under `O=S(=O)(Cc1ccccc1)Nc1c(F)cc(Oc2ncccc2-c2ccnc(NC3CNCC4(C3)CC4(F)F)n2)c(F)c1F` (single isomer, unassigned) [Compound 300, N-(4-((3-(2-((1,1-Difluoro-5-azaspiro[2.5]octan-7-yl)amino)pyrimidin-4-yl)pyridin-2-yl)oxy)-2,3,6-trifluorophenyl)-1-phenylmethanesulfonamide], 8.7 nM.
As for `O=S(=O)(Cc1ccccc1)Nc1c(F)cc(Oc2ncccc2-c2ccnc(NC3CNCC4(C3)CC4(F)F)n2)c(F)c1F` (single isomer, unassigned) [Compound 301, N-(4-((3-(2-((1,1-Difluoro-5-azaspiro[2.5]octan-7-yl)amino)pyrimidin-4-yl)pyridin-2-yl)oxy)-2,3,6-trifluorophenyl)-1-phenylmethanesulfonamide], the IC50 came to 0.36 nM.
Under `O=S(=O)(Cc1ccccc1)Nc1c(F)cc(Oc2ncccc2-c2ccnc(NC3CNCC(C(F)F)C3)n2)c(F)c1F` (single isomer, unassigned) [Compound 302, N-(4-((3-(2-((5-(Difluoromethyl)piperidin-3-yl)amino)pyrimidin-4-yl)pyridin-2-yl)oxy)-2,3,6-trifluorophenyl)-1-phenylmethanesulfonamide] stands 0.44 nM; under `O=S(=O)(Cc1ccccc1)Nc1c(F)cc(Oc2ncccc2-c2ccnc(NC3CNCC(C(F)F)C3)n2)c(F)c1F` (single isomer, unassigned) [Compound 303, N-(4-((3-(2-((5-(Difluoromethyl)piperidin-3-yl)amino)pyrimidin-4-yl)pyridin-2-yl)oxy)-2,3,6-trifluorophenyl)-1-phenylmethanesulfonamide], 35 nM.
`CN(C)C1CCC(Nc2nccc(-c3cccnc3Oc3cc(F)c(NS(=O)(=O)Cc4ccccc4)c(F)c3F)n2)CC1F` (single isomer, unassigned) [Compound 306, N-(4-((3-(2-((4-(Dimethylamino)-3-fluorocyclohexyl)amino)pyrimidin-4-yl)pyridin-2-yl)oxy)-2,3,6-trifluorophenyl)-1-phenylmethanesulfonamide] registered a concentration for half-maximal inhibition (IC50) of 43 nM.
